Literature values in article PMC7238799 (Pulmonary Circulation, 2020).
Like-named read-outs stand apart in the source and are kept apart here.

Key:
[1] = cited from earlier work; for Steady-state PTR / Half-life: oral
[2] = system: prostacyclin (IP) receptor; details: cited from earlier work
[3] = system: healthy male subjects; details: from 400 µg BID up to 1600–1800 µg BID; cited from earlier work
[4] = BID oral administration of selexipag

SMILES: CCCCC[C@H](O)CC[C@@H]1[C@H]2Cc3cccc(OCC(=O)O)c3C[C@H]2C[C@H]1O [treprostinil]
- Steady-state PTR ([1]; BID dosing): 7.0
- Steady-state PTR ([1]; TID dosing): 2.5
- Half-life ([1]; administered two or three times daily): 3 to 4 h

SMILES: CC(C)N(CCCCOCC(=O)O)c1cnc(-c2ccccc2)c(-c2ccccc2)n1 [ACT-333679]
- Accumulation at steady-state [1, 4]: 1.02–1.27 fold
- Mean steady-state PTR [1, 4]: 5.6–6.5
- Effective half-life (EHL) ([1]; active metabolite of selexipag): 3 to 4 h
- Terminal elimination half-life ([1]; active metabolite of selexipag): 6.2 to 13.5 h
- Maximal cAMP stimulation (efficacy percentage relative to iloprost) [2]: 48%
- Type of IP receptor agonism [2]: weak partial agonist

SMILES: CC#CCC(C)[C@H](O)/C=C/[C@@H]1[C@H]2C/C(=C/CCCC(=O)O)C[C@H]2C[C@H]1O (stereo partly shown) [iloprost]
- Maximal cAMP stimulation (efficacy percentage relative to iloprost) [2]: 100%
- Type of IP receptor agonism [2]: full agonist

SMILES: CC#CCC(C)[C@H](O)/C=C/[C@@H]1[C@H]2c3cccc(CCCC(=O)O)c3O[C@H]2C[C@H]1O (mixture of isomers) [beraprost]
- Half-life ([1]; administered four times daily): 0.75 h

SMILES: CC(C)N(CCCCOCC(=O)NS(C)(=O)=O)c1cnc(-c2ccccc2)c(-c2ccccc2)n1 [selexipag]
- Treated subjects achieving full dose escalation [3]: 67–81%
